This assay has as its target S. pneumoniae Topoisomerase IV ATPase (ParE) (Streptococcus pneumoniae serotype 4, UniProt Q59961). Kind of assay: S. pneumoniae Topoisomerase IV ATPase inhibition. Type of assay: biochemical. The settings on record: values marked * are an average of two or more data points, read-out: % Inh (13 μM) of S. pneumoniae Topoisomerase IV ATPase. The procedure, abridged: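 Phosphate release by ParE ATPase from S. pneumoniae read colorimetrically (malachite green, 650 nm), enzyme 1.25 nM, ATP 160 μM, salmon sperm DNA present, buffer 20 mM Tris pH 8.0 with 8 mM MgCl2. IC50 over 10 compound concentrations, EDTA (20 μM) and DMSO controls defining inhibition range.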
Chain of S. pneumoniae Topoisomerase IV ATPase (ParE) (Q59961 whole entry): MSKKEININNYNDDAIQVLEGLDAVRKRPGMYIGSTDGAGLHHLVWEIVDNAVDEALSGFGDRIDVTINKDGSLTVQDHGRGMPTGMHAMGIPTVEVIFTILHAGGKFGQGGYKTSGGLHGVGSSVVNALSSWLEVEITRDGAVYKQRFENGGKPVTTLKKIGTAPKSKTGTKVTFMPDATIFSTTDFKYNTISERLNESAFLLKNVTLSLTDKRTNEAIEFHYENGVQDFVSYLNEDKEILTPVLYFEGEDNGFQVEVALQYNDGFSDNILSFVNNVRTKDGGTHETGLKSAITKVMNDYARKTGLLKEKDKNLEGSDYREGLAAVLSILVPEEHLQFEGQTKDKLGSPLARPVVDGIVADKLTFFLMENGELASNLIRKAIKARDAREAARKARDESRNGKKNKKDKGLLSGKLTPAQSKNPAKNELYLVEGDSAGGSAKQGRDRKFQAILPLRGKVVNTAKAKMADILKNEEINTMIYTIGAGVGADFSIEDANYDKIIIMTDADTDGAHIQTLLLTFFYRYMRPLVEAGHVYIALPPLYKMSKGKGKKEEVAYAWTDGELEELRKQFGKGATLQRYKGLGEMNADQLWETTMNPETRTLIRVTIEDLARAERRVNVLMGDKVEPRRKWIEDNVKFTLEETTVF
For the molecule `Cc1cc(C(F)(F)F)nn1-c1nc(Nc2ccc(F)c(Cl)c2)ncc1-c1cc(C(=O)O)c(=O)n(CCN2CCOCC2)c1` [Example 1076, 5-(2-(3-Chloro-4-fluorophenylamino)-4-(5-methyl-3-(trifluoromethyl)-1H-pyrazol-1-yl)pyrimidin-5-yl)-1-(2-morpholinoethyl)-2-oxo-1,2-dihydrpyridine-3-carboxylic acid], the inhibition at 13 µM was found to be 99%.

Turning to `COc1ncc(-c2cnc(Nc3cc(C)cc(C)c3)nc2-n2ccc(C(F)(F)F)n2)cc1C(=O)NS(=O)(=O)CCCN1CCOCC1` [Example 828, 5-{2-[(3,5-dimethylphenyl)amino]-4-[3-(trifluoromethyl)-1H-pyrazol-1-yl]pyrimidin-5-yl}-2-methoxy-N-{[3-(morpholin-4-yl)propyl]sulfonyl}pyridine-3-carboxamide], the inhibition at 13 µM was 100%.

With `COc1cc(Nc2ncc(-c3cnc(-n4ccnc4)c(C(=O)O)c3)c(-n3ccc(C(F)(F)F)n3)n2)cc(OC)c1` [Example 590, 5-(2-(3,5-dimethoxyphenylamino)-4-(3-(trifluoromethyl)-1H-pyrazol-1-yl)pyrimidin-5-yl)-2-(1H-imidazol-1-yl)nicotinic acid], the inhibition at 13 µM is 100%.

In the case of `CCS(=O)(=O)NC(=O)c1cc(-c2cnc(Nc3cc(OC)cc(OC)c3)nc2-n2ccc(C(F)(F)F)n2)cn(CCOC)c1=O` [Example 1164], the inhibition at 13 µM came to 100%.

For `COCCOc1ncc(-c2cnc(Nc3ccc(F)c(Cl)c3)nc2-n2ccc(C(F)(F)F)n2)cc1C(=O)O` [Example 1133, 5-(2-(3-chloro-4-fluorophenylamino)-4-(3-(trifluoromethyl)-1H-pyrazol-1-yl)pyrimidin-5-yl)-2-(2-methoxyethoxy)nicotinic acid], the inhibition at 13 µM was determined as 100%.

For `COc1cc(C#N)cc(Nc2ncc(-c3cccc(/C=C/C(=O)O)c3)c(-n3nc(C(F)(F)F)cc3C)n2)c1` [Example 729, (2E)-3-(3-{2-[(3-cyano-5-methoxyphenyl)amino]-4-[5-methyl-3-(trifluoromethyl)-1H-pyrazol-1-yl]pyrimidin-5-yl}phenyl)prop-2-enoic acid], the inhibition at 13 µM is 89%.

As for `CCCNc1nc(Nc2ccc(F)c(Cl)c2)ncc1-c1cncnc1` [Example 33, N^2-(3-chloro-4-fluorophenyl)-N^4-propyl-5-pyrimidin-5-ylpyrimidine-2,4-diamine], the inhibition at 13 µM was found to be 81%.

On to `Cc1cc(C(F)(F)F)nn1-c1nc(Nc2ccc3c(c2)OCO3)ncc1-c1cncc(C(=O)O)c1` [Example 671, 5-{2-(1,3-benzodioxol-5-ylamino)-4-[5-methyl-3-(trifluoromethyl)-1H-pyrazol-1-yl]pyrimidin-5-yl}pyridine-3-carboxylic acid], for which the inhibition at 13 µM is 92%.

As for `CCNS(=O)(=O)c1cccc(-c2cnc(Nc3ccc(F)c(Cl)c3)nc2-n2ccc(C(F)(F)F)n2)c1` [Example 995, 3-(2-(3-Chloro-4-fluorophenylamino)-4-(3-(trifluoromethyl)-1H-pyrazol-1-yl)pyrimidin-5-yl)-N-ethylbenzenesulfonamide], the inhibition at 13 µM amounted to 89%.

As for `CC(=O)c1cccc(Nc2ncc(-c3cccc(/C=C/C(=O)O)c3)c(-n3nc(C(F)(F)F)cc3C)n2)c1` [Example 689, (2E)-3-(3-{2-[(3-acetylphenyl)amino]-4-[5-methyl-3-(trifluoromethyl)-1H-pyrazol-1-yl]pyrimidin-5-yl}phenyl)prop-2-enoic acid], the inhibition at 13 µM was found to be 99%.

As to `CC(C)OCCNc1nc(Nc2ccc(F)c(Cl)c2)ncc1-c1cncnc1` [Example 52, N^2-(3-chloro-4-fluorophenyl)-N4-(2-propan-2-yloxyethyl)-5-pyrimidin-5-ylpyrimidine-2,4-diamine], the inhibition at 13 µM was determined as 69.5%.

On to `CCCS(=O)(=O)NC(=O)c1cc(-c2cnc(Nc3cc(OC)cc(OC)c3)nc2-n2nc(C(F)(F)F)cc2C)cnc1OC` [Example 817, 5-{2-[(3,5-dimethoxyphenyl)amino]-4-[5-methyl-3-(trifluoromethyl)-1H-pyrazol-1-yl]pyrimidin-5-yl}-2-methoxy-N-(propylsulfonyl)pyridine-3-carboxamide], for which the inhibition at 13 µM was determined as 100%.

As to `O=C(O)/C=C/c1cccc(-c2cnc(Nc3ccc(F)c(Cl)c3)nc2N[C@@H]2CCOC2)c1` [Example 295, (R,E)-3-(3-(2-(3-chloro-4-fluorophenylamino)-4-(tetrahydrofuran-3-ylamino)pyrimidin-5-yl)phenyl)acrylic acid], the inhibition at 13 µM is 82.7%.

As to `COc1cc(Nc2ncc(-c3cncc(C(=O)O)c3)c(N3CCOCC3)n2)ccc1F` [Example 441], the inhibition at 13 µM came to 74%.

As for `Cc1cc(C(F)(F)F)nn1-c1nc(Nc2ccc(F)c(Cl)c2)ncc1-c1cc(C(=O)NS(C)(=O)=O)c(=O)n(C)c1` [Example 1049, 5-(2-(3-Chloro-4-fluorophenylamino)-4-(5-methyl-3-(trifluoromethyl)-1H-pyrazol-1-yl)pyrimidin-5-yl)-1-methyl-N-(methylsulfonyl)-2-oxo-1,2-dihydropyridine-3-carboxamide], the inhibition at 13 µM is 99%.

Regarding `COc1cc(Nc2ncc(-c3cncnc3)c(NCCCN(C)C)n2)cc(OC)c1` [Example 344, N^2-(3,5-dimethoxyphenyl)-N^4-(3-(dimethylamino)propyl)-5,5′-bi pyrimidin-2,4-diamine], the inhibition at 13 µM was 82%.

On to `O=C(O)c1cc(-c2cnc(Nc3ccc(F)c(Cl)c3)nc2-n2ccc(C(F)(F)F)n2)cnc1OCCn1ccnc1` [Example 797, 5-{2-[(3-chloro-4-fluorophenyl)amino]-4-[3-(trifluoromethyl)-1H-pyrazol-1-yl]pyrimidin-5-yl}-2-[2-(1H-imidazol-1-yl)ethoxy]pyridine-3-carboxylic acid], for which the inhibition at 13 µM amounted to 100%.

In the case of `Fc1ccc(Nc2ncc(-c3cncnc3)c(NCC3CCCO3)n2)cc1Cl` (centres unmarked) [Example 51, N-(3-chloro-4-fluorophenyl)-N′-(oxolan-2-ylmethyl)-5-pyrimidin-5-ylpyrimidine-2,4-diamine], the inhibition at 13 µM was 88.8%.

In the case of `CCOC(=O)c1cncc(-c2cnc(Nc3ccc(F)c(Cl)c3)nc2N2CCC(O)C2)c1` (centres unmarked) [Example 123, ethyl 5-[2-[(3-chloro-4-fluorophenyl)amino]-4-(3-hydroxypyrrolidin-1-yl)pyrimidin-5-yl]pyridine-3-carboxylate], the inhibition at 13 µM came out at 66.4%.

Turning to `CCOC(=O)c1cncc(-c2cnc(Nc3ccc(F)c(Cl)c3)nc2N2CCC(NC(C)=O)CC2)c1` [Example 129, ethyl 5-[4-(4-acetamidopiperidin-1-yl)-2-[(3-chloro-4-fluorophenyl)amino]pyrimidin-5-yl]pyridine-3-carboxylate], the inhibition at 13 µM came out at 74.9%.

As to `COCCCNc1nc(Nc2ccc(F)c(Cl)c2)ncc1-c1nc(C(=O)OC)cs1` [Example 212, Methyl 2-(2-(3-chloro-4-fluorophenylamino)-4-(3-methoxypropylamino)pyrimidin-5-yl)thiazole-4-carboxylate], the inhibition at 13 µM came to 14.5%.

For the molecule `COc1cc(Nc2ncc(-c3cncc(C(=O)O)c3)c(-n3ccc(C(F)(F)F)n3)n2)cc(S(C)(=O)=O)c1` [Example 672, 5-(2-{[3-methoxy-5-(methylsulfonyl)phenyl]amino}-4-[3-(trifluoromethyl)-1H-pyrazol-1-yl]pyrimidin-5-yl)pyridine-3-carboxylic acid], the inhibition at 13 µM turned out to be 100%.

Turning to `CNC(=O)c1cc(-c2cnc(Nc3cc(OC)cc(OC)c3)nc2-n2nc(C(F)(F)F)cc2C)cnc1OC` [Example 808, 5-{2-[(3,5-dimethoxyphenyl)amino]-4-[5-methyl-3-(trifluoromethyl)-1H-pyrazol-1-yl]pyrimidin-5-yl}-2-methoxy-N-methylpyridine-3-carboxamide], the inhibition at 13 µM was determined as 100%.

As to `COc1cc(Nc2ncc(-c3cnc(OC)c(C(=O)O)c3)c(-n3nc(C(F)(F)F)cc3C)n2)cc(OC)c1` [Example 677, 5-{2-[(3,5-dimethoxyphenyl)amino]-4-[5-methyl-3-(trifluoromethyl)-1H-pyrazol-1-yl]pyrimidin-5-yl}-2-methoxypyridine-3-carboxylic acid], the inhibition at 13 µM is 100%.

`COC(=O)CC(=O)c1cncc(-c2cnc(Nc3ccc(F)c(Cl)c3)nc2-n2nc(C(F)(F)F)cc2C)c1` [Example 1041, Methyl 3-(5-(2-(3-chloro-4-fluorophenylamino)-4-(5-methyl-3-(trifluoromethyl)-1H-pyrazol-1-yl)pyrimidin-5-yl)pyridin-3-yl)-3-oxopropanoate]: the inhibition at 13 µM amounted to 100%.

As for `COc1cc(C)cc(Nc2ncc(-c3cc(C(=O)NS(C)(=O)=O)c(=O)n(C)c3)c(-n3ccc(C(F)(F)F)n3)n2)c1` [Example 1173, 5-{2-[(3-methoxy-5-methylphenyl)amino]-4-[3-(trifluoromethyl)-1H-pyrazol-1-yl]pyrimidin-5-yl}-1-methyl-N-(methylsulfonyl)-2-oxo-1,2-dihydropyridine-3-carboxamide], the inhibition at 13 µM was 100%.

Take `CONC(=O)/C=C/c1cccc(-c2cnc(Nc3ccc(F)c(Cl)c3)nc2N2CCOCC2)c1` [Example 376, (E)-3-(3-(2-(3-chloro-4-fluorophenylamino)-4-morpholinopyrimidin-5-yl)phenyl)-N-methoxyacrylamide]: the inhibition at 13 µM came to 87.2%.

On to `CN(C)CCCNc1nc(Nc2ccc(F)c(Cl)c2)ncc1-c1cccnc1` [Example 23, N^2-(3-chloro-4-fluorophenyl)-N^4-[3-(dimethylamino)propyl]-5-pyridin-3-ylpyrimidin-2,4-diamine], for which the inhibition at 13 µM is 95.8%.

Consider `CC(=O)Nc1cc(C(=O)O)cc(-c2cnc(Nc3ccc(F)c(Cl)c3)nc2-n2ccc(C(F)(F)F)n2)c1` [Example 1150, 3-acetamido-5-(2-(3-chloro-4-fluorophenylamino)-4-(3-(trifluoromethyl)-1H-pyrazol-1-yl)pyrimidin-5-yl)benzoic acid], for which the inhibition at 13 µM worked out at 100%.

These data come from patent US20100137313A1 (ASTRAZENECA AB, priority 2008, published 2010).
